Activity calls are given as the source filed them. The calls are words filed in the database; no cut-off is given here.
Key:
HepG2 = assay: Growth inhibition of human HepG2 cells incubated for 72 hrs by MTT assay; format: functional, cell-based; details: HepG2, 72 h
HeLa = assay: Growth inhibition of human HeLa cells incubated for 72 hrs by MTT assay; format: functional, cell-based
PC-3 = assay: Growth inhibition of human PC3 cells incubated for 72 hrs by MTT assay; format: functional, cell-based; details: PC-3, 72 h
MCF7 = assay: cells; details: Homo sapiens, MCF7, 72 h
Tubulin (Sus scrofa) [1] = biological target: T1, Tubulin (Sus scrofa) (UniProt P02554+P02550); assay: (§1) Inhibition of porcine brain tubulin polymerization incubated for 60 mins by fluorescence-based assay
Tubulin = Tubulin (Sus scrofa, UniProt P02554+P02550); assay: as §1
Tubulin (Sus scrofa) [2] = biological target: T1, Tubulin (Sus scrofa); assay: Displacement of [3H]colchicine from biotinylated porcine tubulin at 1 uM incubated for 2 hrs by competition scintillation proximity; format: protein assay
Tubulin (Sus scrofa) [3] = biological target: T1, Tubulin (Sus scrofa); assay: Displacement of [3H]colchicine from biotinylated porcine tubulin at 5 uM incubated for 2 hrs by competition scintillation proximity; format: protein assay
A549 [4] = assay: Growth inhibition of human A549 cells incubated for 48 hrs by MTT assay; format: functional, cell-based; details: A549, 48 h
NCI-H460 = assay: Growth inhibition of human NCI-H460 cells incubated for 48 hrs by MTT assay; format: functional, cell-based; details: NCI-H460, 48 h
[5] = biological target: T2, Tubulin alpha (Homo sapiens) (UniProt P0DPH7+P68366+Q71U36+P68363+Q9BQE3+Q6PEY2+A6NHL2+Q9NY65); assay: Inhibition of alpha tubulin polymerization in human A549 cells assessed as induction of microtubule network dis-organization at 40 nM by Immunofluorescent staining based fluorescence microscopy; format: cell-based
[6] = biological target: T2, Tubulin alpha (Homo sapiens); assay: Inhibition of alpha tubulin polymerization in human A549 cells assessed as induction of cell border shrinkage of microtubules at 40 nM by Immunofluorescent staining based fluorescence microscopy
A549 [7] = assay: Induction of cell cycle arrest in human A549 cells assessed as accumulation at G2/M phase at 40 nM incubated for 24 hrs by propidium iodide staining based FACS flow cytometry; format: functional
A549 [8] = assay: Induction of apoptosis in human A549 cells assessed as induction of cytoplasmic membrane blebbing at 40 nM incubated for 24 hrs microscopy; format: functional, cell-based
A549 [9] = assay: Induction of apoptosis in human A549 cells assessed as induction of cell shrinkage at 40 nM incubated for 24 hrs microscopy; format: functional, cell-based
A549 [10] = assay: Induction of apoptosis in human A549 cells assessed as induction of nucleus fragmentation at 40 nM incubated for 24 hrs microscopy; format: functional, cell-based
A549 [11] = assay: Induction of apoptosis in human A549 cells assessed as induction of chromatin condensation at 40 nM incubated for 24 hrs microscopy; format: functional, cell-based
A549 [12] = assay: Induction of apoptosis in human A549 cells assessed as live cells level at 40 nM incubated for 24 hrs by Annexin V-FITC/PI staining based FACS flow cytometry (reference value: 96.83%); format: functional
A549 [13] = assay: Induction of apoptosis in human A549 cells assessed as early apoptotic cells level at 40 nM incubated for 24 hrs by Annexin V-FITC/PI staining based FACS flow cytometry (reference value: 0.65%); format: functional
A549 [14] = assay: Induction of apoptosis in human A549 cells assessed as late apoptotic cells level at 40 nM incubated for 24 hrs by Annexin V-FITC/PI staining based FACS flow cytometry (reference value: 2.15%); format: functional
A549 [15] = assay: Induction of apoptosis in human A549 cells assessed as necrotic cells level at 40 nM incubated for 24 hrs by Annexin V-FITC/PI staining based FACS flow cytometry (reference value: 0.37%); format: functional

Row | Compound | IC50 (HepG2) [nM] | IC50 (HeLa) [nM] | IC50 (PC-3) [nM] | IC50 (MCF7) [nM] | further results
1 | C#CCNC(=O)COc1cc2c(cc1OCC)Cc1c(Nc3cccc(OCC)c3)nn(C)c1-2 | 587 | 505 | 1780 | 2110 | 
2 | CCOc1cccc(Nc2nn(C)c3c2Cc2cc(OCC)c(OCC(=O)NO)cc2-3)c1 | 16.4 | 13.2 | 23.5 | 33.5 | inhibition (Tubulin (Sus scrofa) [1]): Dose-dependent effect; IC50 (Tubulin): 5330 nM; inhibition (Tubulin (Sus scrofa) [2]): 31%; inhibition (Tubulin (Sus scrofa) [3]): 63%
3 | CC(=O)O[C@H]1C(=O)[C@@]2(C)[C@H]([C@H](OC(=O)c3ccccc3)[C@]3(O)C[C@H](OC(=O)[C@H](O)[C@@H](NC(=O)c4ccccc4)c4ccccc4)C(C)=C1C3(C)C)[C@]1(OC(C)=O)CO[C@@H]1C[C@@H]2O [PACLITAXEL] |  | 18 | 21 |  | 
4 | CCOc1cccc(Nc2nn(C)c3c2Cc2cc(OCC)c(OCC(=O)NC4CC4)cc2-3)c1 | 653 | 720 | 1400 | 3070 | 
5 | CCOc1cccc(Nc2nn(C)c3c2Cc2cc(OCC)c(OCC(=O)NC)cc2-3)c1 | 142 | 90 | 640 | 892 | 
6 | CCOc1cccc(Nc2nn(C)c3c2Cc2cc(OCC)c(OCC(=O)NCCOC)cc2-3)c1 | 447 | 490 | 800 | 1530 | 
7 | CCOc1cccc(Nc2nn(C)c3c2Cc2cc(OCC)c(OCC(=O)NCC4CC4)cc2-3)c1 | 1700 | 3200 | 4600 | > 50000 | 
8 | CCOc1cccc(Nc2nn(C)c3c2Cc2cc(OCC)c(OCC(=O)NN)cc2-3)c1 | 400 | 350 | 760 | 579 | 
9 | CCOc1cccc(Nc2nn(C)c3c2Cc2cc(OCC)c(OCC(=O)NCCN)cc2-3)c1 | 1400 | 865 | 1520 | 1850 | 
10 | CCOc1cccc(Nc2nn(C)c3c2Cc2cc(OCC)c(OCC(=O)NCCN(C)C)cc2-3)c1 | 340 | 375 | 460 | 2990 | 
11 | C=CCNC(=O)COc1cc2c(cc1OCC)Cc1c(Nc3cccc(OCC)c3)nn(C)c1-2 | 853 | 690 | 1940 | 765 | 
12 | CCOc1cccc(Nc2nn(C)c3c2Cc2cc(OCC)c(OCC(=O)NCCO)cc2-3)c1 | 1800 | 415 | 3680 | 662 | 
13 | COc1ccc(/C=C\c2cc(OC)c(OC)c(OC)c2)cc1O [COMBRETASTATIN A4] | 2.1 |  | 3.4 | 12.5 | IC50 (A549 [4]): 49 nM; IC50 (NCI-H460): 35.8 nM; inhibition (Tubulin (Sus scrofa) [3]): 92%
14 | CCOc1cccc(Nc2nn(C)c3c2Cc2cc(OCC)c(OCC(=O)NCCC#N)cc2-3)c1 | 2420 | 1450 | 8600 | 4610 | 
15 | CCOc1cccc(Nc2nn(C)c3c2Cc2cc(OCC)c(OCC(=O)N(C)C)cc2-3)c1 | 920 | 720 | 1780 | 6160 | 
16 | COc1cc2c(c(OC)c1OC)-c1ccc(OC)c(=O)cc1[C@@H](NC(C)=O)CC2 [COLCHICINE] | 19 | 7.6 |  | 47 | IC50 (A549 [4]): 59.1 nM; IC50 (NCI-H460): 49.3 nM; inhibition [5]: Active; inhibition [6]: Active; Activity (A549 [7]): 37%; Activity (A549 [8]): Active; Activity (A549 [9]): Active; Activity (A549 [10]): Active; Activity (A549 [11]): Active; Activity (A549 [12]): 84.59%; Activity (A549 [13]): 8.38%; Activity (A549 [14]): 5.89%; Activity (A549 [15]): 1.14%
17 | CCNC(=O)COc1cc2c(cc1OCC)Cc1c(Nc3cccc(OCC)c3)nn(C)c1-2 | 1310 | 623 | 3740 | 1470 | 
18 | CCOc1cccc(Nc2nn(C)c3c2Cc2cc(OCC)c(OCC(=O)NOC)cc2-3)c1 | 853 | 470 | 2900 | 1670 | 
19 | COc1ccc(S(=O)(=O)Nc2cccnc2Nc2ccc(O)cc2)cc1 [ABT-751] | 447 | 355 | 460 | 3790 | IC50 (Tubulin): 2790 nM; inhibition (Tubulin (Sus scrofa) [2]): 39%; inhibition (Tubulin (Sus scrofa) [3]): 68%

Reference: ChEMBL document CHEMBL4428037 (J Med Chem, 2016)
